From patent publication US6894068B2, “Substituted benzimidazoles as non-nucleoside inhibitors of reverse transcriptase” (The United States of America as represented by the …, priority 1997, dated 2005)
pEC50, pIC50: −log10 of the molar value. Where two headings read alike, the source gives them in different places.

Legend:
[1] = tested on: HIV-1 isolate 4xAZT/L100I; test: Cytopathic cell killing assay, MT-4 cells, isolate 4xAZT/L100I; assay type: cell-based; conditions: Human immunodeficiency virus 1, MT4, read-out: EC50, isolate 4XAZT/L1001
Experimental: The various HIV isolates tested in the Figures are those corresponding to wild-type virus (NL4-3) and the other strains listed by their RT mutations. The three 4×AZT isolates included in the Figures represent AZT drug-resistant variants.
Briefly, in this method cells (e.g., the CEM-SS cell line, available from the NIAID AIDS Research and Reference Program [ARRRP]) were seeded at a density of 5×10^3 cells/well, into the wells of a 96-well microtiter plate. The cells were then infected with HIV virus (either mutant or WT), at a multiplicity of infection (MOI) previously determined to provide complete cell killing by 6 days of culture post-infection (e.g., MOI of 0.01-0.05). Each of the HIV isolates was pre-titered to induce equivalent levels of infection based on cell killing or virus production, prior to their use in these assays. A range of test compound concentrations was added to the wells in triplicate (e.g., serial half-log dilutions) to evaluate inhibition of HIV infection. Controls for each assay included drug controls (drug colorimetric control wells), drug cytotoxicity control wells (cells with drug), virus control wells (cells with virus), and cell viability controls (cells only). Positive control drugs (e.g. AZT and ddC) were also run in parallel.
(§1) After six days of incubation at 37° C., cell viability was determined spectrophotometrically at 450 nm for each well, using the metabolic reduction of XTT to a soluble colored formazan. (See, Gartner and Popovic, “Virus Isolation and Production, in Aldovini and Walker (eds.), Techniques in HIV Research, Stockton Press, NY, pp. […] [1991]; and Nara and Fischinger, “Quantitative Infectivity Assay for HIV-1 and HIV-2, ” Nature 332:469-470 [1988]).
The in vitro therapeutic index (TI50) was defined as the fold-difference between the EC50 and IC50.

HIV-1 isolate A98G = test: Cytopathic cell killing assay, MT-4 cells, isolate A98G; assay type: cell-based
From the text: (§2) The various HIV isolates tested in the Figures are those corresponding to wild-type virus (NL4-3) and the other strains listed by their RT mutations. The three 4×AZT isolates included in the Figures represent AZT drug-resistant variants. For example, the 4×AZT/L100I isolate has five mutations: four mutations confer increased resistance to AZT, and the other mutation is located within the NNRTI binding pocket. TZB and nevir. (nevirapine) are two well-known NNRTIs, included in this experiment for comparison purposes.
(§3) In this Example, the antiviral and cellular toxicity of NNRTIs was investigated, using the cytopathic cell killing assay described by Yang (Yang et al., “Characteristics of a Group of Non-nucleoside Reverse Transcriptase Inhibitors with Structural Diversity and Potent Anti-Human Immunodeficiency Virus Activity,” Leukemia 9:S75-S85 [1995]). Briefly, in this method cells (e.g., the CEM-SS cell line, available from the NIAID AIDS Research and Reference Program [ARRRP]) were seeded at a density of 5×10^3 cells/well, into the wells of a 96-well microtiter plate. The cells were then infected with HIV virus (either mutant or WT), at a multiplicity of infection (MOI) previously determined to provide complete cell killing by 6 days of culture post-infection (e.g., MOI of 0.01-0.05). Each of the HIV isolates was pre-titered to induce equivalent levels of infection based on cell killing or virus production, prior to their use in these assays. A range of test compound concentrations was added to the wells in triplicate (e.g., serial half-log dilutions) to evaluate inhibition of HIV infection. Controls for each assay included drug controls (drug colorimetric control wells), drug cytotoxicity control wells (cells with drug), virus control wells (cells with virus), and cell viability controls (cells only). Positive control drugs (e.g. AZT and ddC) were also run in parallel.
as §1
(§4) The in vitro therapeutic index (TI50) was defined as the fold-difference between the EC50 and IC50. The results for the various compounds are included in FIGS. 8 and 19.

HIV-1 WT RT = HIV-1 WT RT (Human immunodeficiency virus type 1 group M subtype B, UniProt P03366); test: biochemical; assay type: biochemical
HIV-1 isolate L100I = test: Cytopathic cell killing assay, MT-4 cells, isolate L100I; assay type: cell-based
Method in brief: (§5)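 5×10^3 cells/well; HIV-1 isolates pre-titered for equivalent infection, MOI ~0.01-0.05; compound half-log serial dilutions, triplicate; 6 d, 37° C; XTT read at 450 nm; uninfected cells with drug for cytotoxicity.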

HIV-1 NL4-3 (WT) = test: Cytopathic cell killing assay, MT-4 cells, isolate NL4-3 (WT); assay type: cell-based; conditions: for EC50: values in μM, read-out: EC50, isolate NL4-3 (WT)
From the text: as §2, §3, §1, §4

HIV-1 isolate K101E = test: Cytopathic cell killing assay, MT-4 cells, isolate K101E; assay type: cell-based; conditions: for pEC50: Human immunodeficiency virus 1, MT4, read-out: EC50, isolate K101E, Table 8, MT-4 cells
Method in brief: as §5

HIV-1 isolate M184I = test: Cytopathic cell killing assay, isolate M184I; assay type: cell-based; conditions: Human immunodeficiency virus 1, read-out: EC50, isolate M184I
From the text: as §2
In this Example, the antiviral and cellular toxicity of NNRTIs was investigated, using the cytopathic cell killing assay described by Yang (Yang et al., “Characteristics of a Group of Non-nucleoside Reverse Transcriptase Inhibitors with Structural Diversity and Potent Anti-Human Immunodeficiency Virus Activity,” Leukemia 9:S75-S85 [1995]). Briefly, in this method cells (e.g., the CEM-SS cell line, available from the NIAID AIDS Research and Reference Program [ARRRP]) were seeded at a density of 5×10^3 cells/well, into the wells of a 96-well microtiter plate. The cells were then infected with HIV virus (either mutant or WT), at a multiplicity of infection (MOI) previously determined to provide complete cell killing by 6 days of culture post-infection (e.g., MOI of 0.01-0.05). Each of the HIV isolates was pre-titered to induce equivalent levels of infection based on cell killing or virus production, prior to their use in these assays. A range of test compound concentrations was added to the wells in triplicate (e.g., serial half-log dilutions) to evaluate inhibition of HIV infection. […]
After six days of incubation at 37° C., cell viability was determined spectrophotometrically at 450 nm for each well, using the metabolic reduction of XTT to a soluble colored formazan. (See, Gartner and Popovic, “Virus Isolation and Production, in Aldovini and Walker (eds.), Techniques in HIV Research, Stockton Press, NY, pp. […] [1991]; and Nara and Fischinger, “Quantitative Infectivity Assay for HIV-1 and HIV-2, ” Nature 332:469-470 [1988]). […]

Structure (SMILES)	pEC50 [1]	pEC50 (HIV-1 isolate A98G; Human immunodeficiency virus 1, MT4, read-out: EC50, isolate A98G, Table 8, MT-4 cells)	pIC50 (HIV-1 WT RT)	inhibition at 1 µM (HIV-1 WT RT; Table 7, 1 μM drug, WT HIV-1 RT, read-out: % inhibn (1 μM))	pEC50 (HIV-1 isolate L100I; Human immunodeficiency virus 1, MT4, read-out: EC50, isolate L1001, Table 8, MT-4 cells)	pEC50 (HIV-1 NL4-3 (WT); Human immunodeficiency virus 1, NL43, MT4, Table 8, MT-4 cells, read-out: EC50, isolate NL4-3)	EC50 (HIV-1 NL4-3 (WT); Human immunodeficiency virus 1, NL43, MT4, Table 10)	EC50 (HIV-1 NL4-3 (WT); Table 10, listed as NH2)	pEC50 (HIV-1 isolate K101E)	pEC50 (HIV-1 isolate M184I)	pEC50 (HIV-1 isolate A98G; Human immunodeficiency virus 1, MT4, read-out: EC50, isolate A98G)	pEC50 (HIV-1 isolate L100I; Human immunodeficiency virus 1, MT4, read-out: EC50, isolate L100I)	pEC50 (HIV-1 isolate L100I; Human immunodeficiency virus 1, MT4, read-out: EC50, isolate L1001)	pEC50 (HIV-1 NL4-3 (WT); Human immunodeficiency virus 1, NL43, MT4, read-out: EC50, isolate NL4-3)	pEC50 (HIV-1 NL4-3 (WT); Human immunodeficiency virus 1, NL43, MT4, read-out: EC50, isolate NL4-3 (WT))	EC50 (HIV-1 isolate K101E; Human immunodeficiency virus 1, MT4, read-out: EC50, isolate K101E, Table 10, values in μM)
Nc1cccc2c1nc(-c1c(F)cccc1F)n2Cc1c(F)cccc1F [Compound 3300, 4-amino-1-(2,6-difluorobenzyl)-2-(2,6-difluorophenyl)benzimidazole]	6.52	5.82	6.55	69%	5.89	6.30	0.68 µM	0.4 µM	< 4.70	6.19						
CCc1cccc2c1nc(-c1c(F)cccc1F)n2Cc1c(F)cccc1F [Compound 4011, 1-(2,6-difluorobenzyl)-2-(2,6-difluorophenyl)-4-ethylbenzimidazole]	6.22								< 4.70	6.02	5.10	5.61	6.22	5.96	6.05	> 50 µM
